“And” between values parts separate entries of the source, which are not always exact repeats. Identical values can stand only once. Like-named read-outs stand apart in the source and are kept apart here.
Key:
[1] = In situ determination of apparent pKa using TNS fluorescence titration
From the text: In situ pKa measurements were made using the pH sensitive fluorescent probe TNS, using a modification of the approach previously published in Bailey, A. L. and Cullis, P. R., Biochemistry 33:12573-12580 (1994).
Titrations of surface charge as a function of pH can then be used to determine the apparent pKa (hereafter referred to as pKa) of constituent lipids (Cullis, P. R., et al., Chem Phys Lipids 40:127-144 (1986)).

[2] = Pharmacokinetic and liver analysis of Cy-3 labeled siRNA in LN-siRNA systems; format: in vivo
From the text: A fluorescently labeled siRNA (Cy-3 labeled luciferase siRNA, Alnylam Pharmaceuticals) was used to measure the siRNA content in plasma and liver after iv administration of LN-siRNA systems. The measurements were done by first extracting the Cy3-siRNA from the protein-containing biological matrix and then analyzing the amount of Cy-3 label in the extract by fluorescence. Two extraction methods were used, a chloroform/methanol mixture for the plasma samples and a commercial phenol/chloroform mixture (Trizol® reagent) with the tissue samples.
For plasma, blood was collected in EDTA-containing Vacutainer tubes and centrifuged at 1000×g for 10 min at 4-8° C. to isolate the plasma. The plasma was transferred to an eppendorf tube and either assayed immediately or stored in a −30° C. freezer. An aliquot of the plasma (100 μL maximum) was diluted to 500 μL with PBS (145 mM NaCl, 10 mM phosphate, pH 7.5), methanol (1.05 mL and chloroform (0.5 mL) was added, and the sample vortexed to obtain a clear, single phase solution. Water (0.5 mL) and chloroform (0.5 mL) was then added and the resulting emulsion sustained by mixing periodically for a minimum of 3 minutes. The mixture was centrifuged at 3000 rpm for 20 minutes and the top aqueous phase containing the Cy-3-label transferred to a new test tube. The fluorescence of the solution was measured using an SLM Fluorimeter at an excitation wavelength of 550 nm (2 nm bandwidth) and emission wavelength of 600 nm (16 nm bandwidth). A standard curve was generated by spiking aliquots of plasma from untreated animals with the Cy-3-siRNA containing formulation (0 to 15 μg/mL), and the sample processed as indicated above.
For liver, sections (400-500 mg) of tissue from saline-perfused animals was accurately weighed and homogenized in 1 mL of Trizol using Fastprep tubes. An aliquot of the homogenate (typically equivalent to 50 mg of tissue) was transferred to an eppendorf tube and additional Trizol added to 1 mL final. Chloroform (0.2 mL) was added, and the solution was mixed and incubated for 2-3 min before being centrifuged for 15 min at 12,000×g. An aliquot (0.5 mL) of the top Cy-3-containing aqueous phase was diluted with 0.5 mL of PBS and the fluorescence of the sample measured as described above.
The correlation between levels of siRNA delivered to the liver and FVII reduction was determined by encapsulating Cy-3 labeled siRNA in the selection of LN-siRNA systems covering a spectrum of in vivo activities shown in Table 8. Cy-3 fluorescence was measured in plasma and liver tissue 0.5 and 3.0 h post injection.

[3] = Bilayer-to-hexagonal HII transition temperature (TBH) in equimolar mixtures with DSPS; format: physicochemical; conditions: for HII transition temperature: equimolar with DSPS, pH 4.8, 31P NMR and DSC
From the text: Both techniques gave similar results.

[4] = tested on: Factor VII (FVII); conditions: for FVII ED50: Table 11
From the text: It is well established that in vivo RNAi silencing of specific hepatocyte proteins can be achieved following intravenous (i.v.) administration of siRNA's encapsulated in, or associated with, select nanoparticles designed for intracellular delivery. […] In this Example, rational design in combination with in vivo screening were applied to systematically modify the structure of DLinDMA and identify molecular features that enhance or reduce cationic lipid potency. More than 30 lipids were synthesized and incorporated into nucleic acid-lipid particles, i.e., lipid nanoparticles (LN) encapsulating an siRNA (LN-siRNA) targeting Factor VII (FVII), a blood clotting component synthesized and secreted by hepatocytes that is readily measured in serum. LN-siRNA systems were prepared using the same process, lipid molar ratios and particle size to minimize effects on activity resulting from formulation characteristics other than the cationic lipid. Each formulation was administered as a single bolus injection over a range of doses enabling an estimate of the siRNA dose required to reduce FVII serum protein concentrations by 50% after 24 h (ED50).
FVII activity was evaluated in FVII siRNA-treated animals at 24 hours after intravenous (bolus) injection in C57BL/6 mice or 48 hours after intravenous (bolus) injection in SD rats. Six to 8 week old, female C57Bl/6 mice were obtained from Charles River Laboratories and acclimated for one week prior to use in studies. Animals were held in a pathogen-free environment and all procedures involving animals were performed in accordance with the guidelines established by the Canadian Council on Animal Care.
LN-siRNA systems containing Factor VII siRNA were diluted to the appropriate concentrations in sterile phosphate buffered saline immediately prior to use, and the formulations were administered intravenously via the lateral tail vein in a total volume of 10 ml/kg. After 24 h, animals were anaesthetised with Ketamine/Xylazine and blood was collected by cardiac puncture and processed to serum (Microtainer Serum Separator Tubes; Becton Dickinson, Franklin Lakes, N.J., USA). Serum was tested immediately or stored at −70° C. for later analysis for serum Factor VII levels.
FVII was measured using a commercially available kit (Biophen FVII Kit™; Aniara Corp., Mason, Ohio), following the manufacturer's instructions at a microplate scale. FVII reduction was determined against untreated control animals, and the results were expressed as % Residual FVII. Five dose levels (0.1, 0.3, 0.5, 1.0, and 3.0 mg/kg) were typically used.
Serum Factor VII levels were determined using the colorimetric Biophen VII assay kit (Anaira, USA). Briefly, serially diluted pooled control serum (200%-3.125%) and appropriately diluted plasma samples from treated animals were analyzed using the Biophen VII kit according to manufacturer's instructions in 96-well, flat bottom, non-binding polystyrene assay plates (Corning, Corning, N.Y.) and absorbance at 405 nm was measured. A calibration curve was generated using the serial diluted control serum and used to determine levels of Factor VII in serum from treated animals.
Initial studies were performed in eight to 10 week old, female C57BL/6 mice in two stages. In the first stage, the activity associated with the benchmark lipid DLinDMA was compared to the activity associated with modified forms of DLinDMA.

[5] = tested on: Factor VII (FVII); assay: In vivo FVII activity of nucleic acid-lipid formulations in rats; parameters: species or system SD rats; conditions: PEG-C-DOMG as PEG-lipid
Description: The ability of various nucleic acid-lipid formulations comprising different cationic lipids was further explored in mice and rats. Each of the tested nucleic acid-lipid formulations was prepared as described above using PEG-C-DOMG as the PEG-lipid. The formulations initially tested (which included either DLin-K-DMA, DLin-K-MPZ, DLin-K-C2-DMA, or DLin-K-C4-DMA) reduced residual FVII levels in both mice (FIG. 3) and rats (FIG. 4). […] The activity of the DLin-K-C2-DMA formulation was approximately 2-3-fold greater than the DLin-K-DMA formulation in mice, and approximately 10-20-fold greater than the DLin-K-DMA formulation in rats. A comparison of FVII reduction in mice and rats using the DLin-K-DMA formulation or the DLin-K-C2-DMA formulation is shown in FIG. 5.

[6] = Tolerability of DLin-K-C2-DMA lipid particles in mice; format: in vivo
Description: (§1) Data was recorded as % Change in Body Weight.

[7] = tested on: transthyretin (TTR); assay: TTR silencing by KC2-SNALP-formulated siTTR in non-human primates (liver TTR mRNA); format: in vivo, Cynomolgus monkeys; conditions: Macaca fascicularis, iv, single 15 minute i.v. infusion; 48 hours post-administration
From the text: FIGS. 9A-B illustrate the efficacy of KC2-SNALP formulations. FIG. 9A is a graph showing the improved efficacy of KC2-SNALP versus a DLin-K-C2-DMA PFV formulation in mice. The in vivo efficacy of KC2-SNALP (◯) was compared to that of the un-optimized DLin-KC2-DMA PFV formulation (●) in the mouse FVII model. Data points are expressed as a percentage of PBS control animals and represent group mean (n=5)±s.d. FIG. 9B depicts the efficacy of KC2-SNALP in non-human primates. Cynomolgus monkeys (n=3 per group) received either 0.03, 0.1, 0.3 or 1 mg/kg siTTR, or 1 mg/kg siApoB formulated in KC2-SNALP or PBS as 15 minute intravenous infusions (5 mL/kg) via the cephalic vein. Animals were sacrificed at 48 hours post-administration. TTR mRNA levels relative to GAPDH mRNA levels were determined in liver samples. Data points represent group mean±s.d. *=P<0.05; **=P<0.005.
Given the promising activity and safety profile observed in rodents in the studies described in Example 17, studies were performed in non-human primates to investigate the translation of DLin-KC2-DMA activity in higher species. For these studies, transthyretin (TTR), a hepatic gene of high therapeutic interest, was targeted. […]
Tissues were harvested at 48 hours post-administration, and liver mRNA levels of TTR were determined. […]

[8] = format: in vivo; conditions: rats
Description: as §1
Histopathology results for livers obtained from rats treated with 91 mg/kg (“5” mg/kg) were normal.

[9] = siRNA dose reducing serum FVII protein by 50% at 24 h, PFV LN-siRNA 40/10/40/10

1,2-Dilinoleoyl-3-dimethylaminopropane [DLinDAP]
Apparent pKa ([1]; in situ in preformed vesicles, TNS fluorescence titration, Table 11): 5.7 | Liver Cy-3 siRNA ([2]; 0.5 h post injection): 20.5 % injected dose | Plasma Cy-3 siRNA ([2]; 0.5 h post injection): 46.6 % injected dose | Liver Cy-3 siRNA ([2]; 3.0 h post injection): 16.5 % injected dose | Plasma Cy-3 siRNA ([2]; 3.0 h post injection): 3.3 % injected dose | HII transition temperature [3]: 26 °C | ED50 ([4]; Table 4, siRNA dose reducing serum FVII protein by 50% at 24 h, PFV LN-siRNA 40/10/40/10): 40 to 50 mg/kg | ED50 ([4]; Table 8, FVII ED50 of the LN-siRNA system): 12 to 25 mg/kg | FVII ED50 [4]: >25 mg/kg | ED50 [4, 9]: 12 to 25 mg/kg

CCCCC/C=C\C/C=C\CCCCCCCCC1(CCCCCCCC/C=C\C/C=C\CCCCC)OCC(CCN(C)C)O1 (stereo not drawn) [DLin-K-C2-DMA, 2,2-Dilinoleyl-4-(2-dimethylaminoethyl)-[1,3]-dioxolane]
fold greater activity than the DLin-K-DMA formulation [5]: 10-20 fold | pKa [1]: 6.4 | pKa ([1]; nucleic acid-lipid particles containing the cationic lipid): 6.4 | body weight ([6]; mice): dose-dependent loss of weight | increase in ALT-AST ([6]; mice, approximately 1100 mg/kg lipid): greater than 10 fold | clinical signs ([6]; mice, except at greater than 1300 mg/kg (hunched, slower movement, scruffy coat)): no obvious clinical signs | mortality ([6]; mouse, in vivo): no mice died | ED50 [7]: 0.3 mg/kg | lipid dose as low as which significant increases in ALT/AST were seen [8]: 182 mg/kg lipid | liver histopathology ([8]; 91 mg/kg): normal | clinical observations and liver appearance ([8]; 91 mg/kg lipid): appeared normal and had normal livers | liver histopathology ([8]; 182 mg/kg): mild to moderate hepatocellular necrosis, centrilobular, and hepatocellular vacuolization | clinical observations ([8]; 182 mg/kg lipid): slower movement and a scruffy coat | clinical observations and liver appearance ([8]; 364 mg/kg lipid): hunched, slower movement, quinting eyes, scruffy coats, piloerection, red/orange uring, with pale and some mottling livers | mortality ([8]; 364 mg/kg lipid): one died | body weight ([8]; 24 hours after i.v. treatment): dose-dependent loss of weight | TBH lower than that for DLinDMA [3]: 7 °C | HII transition temperature [3]: 20 °C | ED50 ([4]; Table 6, siRNA dose reducing serum FVII protein by 50% at 24 h, PFV LN-siRNA 40/10/40/10): ~0.1 mg/kg | FVII ED50 [4]: ~0.1 mg/kg | fold more potent / greater activity than DLin-K-DMA ([4]; mice): 4 fold and 2-3 fold | fold difference in in vivo activity between DLin-K-C2-DMA and DLin-K-C4-DMA ([4]; mouse, in vivo): > 30 fold | fold more potent than the DLinDMA benchmark ([4]; reducing serum FVII protein, mouse, head-to-head): 10 fold | siRNA dose as low as which in vivo activity was exhibited ([4]; rodents): 0.01 mg/kg | ED50 [4, 9]: ~0.1 mg/kg | encapsulated siRNA sufficient to knockdown serum FVII protein by 50% ([4]; single i.v. bolus to a mouse, within 24 h, 40 mole % cationic lipid): ~100 picomoles
